In patent US20040197294A1, “Cosmetic and/or pharmaceutical preparations” (priority 2001, published 2004):
Where two headings read alike, the source gives them in different places.

Columns and labels:
[1] = tested on: pig's epidermis; assay: Dermatological compatibility: transepidermal water loss (TEWL), gravimetric; details: […] by weight partial glyceride or glycerol ether in 17% by weight Plantapon PS 10, pH 5.5; skin treated 30 minutes at 40° C.; lower = better compatibility
Description: (§1) Dermatological compatibility was evaluated by determining the transepidermal water loss (TEWL) in a pig's epidermis. To this end, defined pieces of skin were treated with the various test solutions for 30 minutes at 40° C. and the TEWL value was gravimetrically determined. The test solutions were mixtures of 17% by weight Plantapon® PS 10 (sodium lauryl ether sulfate and Lauryl Glycoside, Cognis Dusseldorf) with 1.5% by weight fatty acid partial glycerides or glycerol ethers (see Table 1) in preservative-containing water (WAS 10% by weight). The pH was adjusted to 5.5 with citric acid.

[2] = tested on: pig's epidermis; details: pH 5.5
Description: as §1

| Molecule | TEWL [%-rel] = [treated/untreated * 100] − 100% [1] | TEWL [%-rel] = [treated/untreated * 100] − 100% [2] |
| --- | --- | --- |
| CCCCCCCCOCC(O)CO (centres unmarked) [Example 2, Glycerol monocapryl ether (>90)] | 5.0 %-rel | – |
| CCCCCCCCCCCC(=O)OCC(O)CO (centres unmarked) [Example 10, Lauric acid monoglyceride (>90)] | 10.5 %-rel | – |
| Lauric acid mono/diglyceride (65:35) [Example 9] | – | 20.5 %-rel |
| Isostearic acid mono/diglyceride (65:35) [Example 7] | – | 22.0 %-rel |
| Isostearic acid monoglyceride (>90) [Example 8] | 18.5 %-rel | – |
